Key:
complement = assay: Inhibition of complement mediated hemolysis; type: cell-based
Protocol: The complement mediated hemolysis is widely used as a means to determine the titration of complement. The principle of this method is based on the fact that hemolysis if caused by the activation of complement, when the latter is added to a complex (immune complex) of erythrocytes and the antibody thereof. The degree of hemolysis varies in proportion to the amount of complement added. Therefore, when a known amount of complement admixed with a Cl esterase inhibitor is used, the hemolysis must be suppressed in proportion to the inhibitory activity.
The anti-Cl esterase (Clr, Cls) activity was determined according to the method of Okamura et al. [K. Okamura, M. Muramatsu and B. Fujii, Biochem. Biophys. […] The figures in Table 2 have the following meanings: […]

Clr = molecular target: T1, Clr (Homo sapiens, UniProt P00736); assay: Anti-Cl esterase activity, Clr (AAME hydrolysis); type: biochemical; conditions: hydrolysis of AAME; read-out: Anti-Cl activity, Clr (ID50)
T1 sequence (P00736 464-705 limits assumed): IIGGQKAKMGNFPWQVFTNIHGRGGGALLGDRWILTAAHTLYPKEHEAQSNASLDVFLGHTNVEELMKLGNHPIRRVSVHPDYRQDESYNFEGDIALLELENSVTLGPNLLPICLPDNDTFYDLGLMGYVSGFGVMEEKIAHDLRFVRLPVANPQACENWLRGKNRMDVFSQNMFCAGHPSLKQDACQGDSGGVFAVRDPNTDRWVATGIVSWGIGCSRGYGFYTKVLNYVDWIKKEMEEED
T1 sequence (P00736 18-463 limits assumed): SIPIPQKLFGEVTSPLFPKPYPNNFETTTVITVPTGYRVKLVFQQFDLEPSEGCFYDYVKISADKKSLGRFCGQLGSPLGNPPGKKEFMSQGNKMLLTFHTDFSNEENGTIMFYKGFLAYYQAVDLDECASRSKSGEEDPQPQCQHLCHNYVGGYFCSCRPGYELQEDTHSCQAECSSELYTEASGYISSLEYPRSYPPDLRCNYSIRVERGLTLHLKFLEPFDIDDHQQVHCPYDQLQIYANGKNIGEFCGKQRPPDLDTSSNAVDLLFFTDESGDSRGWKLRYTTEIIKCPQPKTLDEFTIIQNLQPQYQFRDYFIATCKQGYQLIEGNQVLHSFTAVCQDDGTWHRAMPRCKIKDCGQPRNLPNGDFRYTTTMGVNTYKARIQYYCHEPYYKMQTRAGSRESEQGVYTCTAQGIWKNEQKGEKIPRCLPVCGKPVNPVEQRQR
Protocol: The anti-Cl esterase ([…]) activity was determined according to the method of Okamura et al. [K. Okamura, M. Muramatsu and B. Fujii, Biochem. Biophys.

| SMILES | Inhibition of complement mediated hemolysis (%) (complement; compound at 1 × 10^-4) | Inhibition of complement mediated hemolysis (%) (complement; compound at 1 × 10^-5) | Inhibition of complement mediated hemolysis (%) (complement; compound at 1 × 10^-6) | Inhibition of complement mediated hemolysis (%) (complement; compound at 1 × 10^-7) | IC50 (Clr) [µM] |
| --- | --- | --- | --- | --- | --- |
| COc1cc(C(=N)N)ccc1OC(=O)CC(C)C [Compound 3, 4-amidino-2-methoxyphenyl isovalerate] | 44.4 | 5.0 | 18.0 | 0 | – |
| CCCCCCC(=O)Oc1ccc(C(=N)N)cc1C(=O)c1ccccc1 [Compound 4] | 95.0 | 67.2 | 8.7 | 0 | – |
| COc1cc(C(=N)N)ccc1OC(=O)C1CCCCC1 [Compound 9] | – | 16.2 | 2.5 | 0 | – |
| N=C(N)NCCCCCC(=O)Oc1ccc(C(=N)N)cc1C(=O)c1ccccc1 [Compound 15] | 98.8 | 81.7 | 12.7 | 0 | – |
| COc1cc(C(=N)N)ccc1OC(=O)CCc1ccccc1 [Compound 32, 4-amidino-2-methoxyphenyl 3-phenylpropionate] | 63.9 | 97.5 | 7.1 | 0 | – |
| Cc1cccc(C(=O)Oc2ccc(C(=N)N)cc2[N+](=O)[O-])c1 [Compound 36] | 100 | 100 | 100 | 90.4 | – |
| CC(C)Cc1ccc(C(C)C(=O)Oc2ccc(C(=N)N)cc2C(=O)c2ccccc2)cc1 (stereo not drawn) [Compound 40] | 87.5 | 68.1 | 7.8 | 2.0 | – |
| COc1ccccc1C(=O)Oc1ccc(C(=N)N)cc1C(=O)c1ccccc1 [Compound 41] | 66.7 | 9.3 | 0 | 0 | – |
| COc1cccc(CC(=O)Oc2ccc(C(=N)N)cc2OC)c1 [Compound 43] | 95.0 | 50.4 | 3.7 | 0 | – |
| CC(=O)c1ccc(C(=O)Oc2ccc(C(=N)N)cc2C(=O)c2ccccc2)cc1 [Compound 53] | 87.5 | 25.2 | – | 3.5 | – |
| CC(=O)Oc1ccc(CCC(=O)Oc2ccc(C(=N)N)cc2C(=O)c2ccccc2)cc1 [Compound 55, 4-amidino-2-benzoylphenyl 3-(4-acetyloxy)phenylpropionate] | 100 | 96.9 | 60.8 | 3.5 | – |
| N=C(N)c1ccc(OC(=O)c2ccc(CNC(=O)OCc3ccccc3)cc2)c(C(=O)c2ccccc2)c1 [Compound 63] | 100 | 100 | 98.0 | 94.5 | – |
| N=C(N)c1ccc(OC(=O)c2ccc(CN)cc2)c(C(=O)c2ccccc2)c1 [Compound 64] | 100 | 100 | 97.1 | 75.7 | – |
| COc1cc(C(=N)N)ccc1OC(=O)CCCc1ccc(N)cc1 [Compound 65, 4-amidino-2-methoxyphenyl 4-(4-aminophenyl)butyrate] | 81.7 | 9.8 | 0 | 0 | – |
| N=C(N)c1ccc(OC(=O)c2ccc(S(N)(=O)=O)cc2)c(C(=O)c2ccccc2)c1 [Compound 67] | 99.2 | 99.2 | 96.9 | 57.5 | – |
| N=C(N)c1ccc(OC(=O)c2ccc(S(N)(=O)=O)cc2)c([N+](=O)[O-])c1 [Compound 68] | 100 | 92.9 | 50.6 | 5.8 | – |
| N=C(N)Nc1ccc(C(=O)Nc2cc(C(=N)N)ccc2OC(=O)c2ccc(NC(=N)N)cc2)cc1 [Compound 73, 4-amidino-2-(4-guanidinobenzoylamino)phenyl 4-guanidinobenzoate] | 100 | 100 | 89.9 | 46.1 | – |
| CN(C(=N)N)c1ccc(C(=O)Oc2ccc(C(=N)N)cc2C(=O)c2ccccc2)cc1 [Compound 78] | 97.4 | 58.8 | 7.0 | 0 | > 10 |
| CNC(=S)Nc1ccc(C(=O)Oc2ccc(C(=N)N)cc2C(=O)c2ccccc2)cc1 [Compound 79] | 95.1 | 96.8 | 81.7 | 48.1 | > 10 |
| CC(C(=O)Oc1ccc(C(=N)N)cc1C(=O)c1ccccc1)c1ccc(Cl)cc1 (stereo not drawn) [Compound 86] | 100 | 97.1 | 53.6 | 11.0 | – |
| CC(=O)N[C@@H](CC(C)C)C(=O)N[C@@H](CC(C)C)C(=O)N[C@H](C=O)CCCNC(=N)N [Leupeptin, reference compound] | 97 | 52 | 0 | 0 | – |

From patent US4570006A, “Amidine compound, process for producing same and anti-complement agent comprising same” (Torii & Co. Ltd., priority 1981, dated 1986)
